In US20260224554A1, “OBEFAZIMOD FOR TREATMENT OF ULCERATIVE COLITIS” (ABIVAX, priority 2023, published 2026):

Tested on: subjects with Moderate to Severe Active Ulcerative Colitis
Assay: Follow-up Phase II open-label long-term study of ABX464 25 mg QD (ABX464-108), interim analysis
Assay type: in vivo, human
Experimental: • The primary objective of the study is to evaluate the long-term safety of ABX464 given at 25 mg once daily in subjects with Moderate to Severe Active Ulcerative Colitis • Number of Adverse Events (AEs) in ABX464 treated subjects
The secondary objectives are: • To evaluate the long-term effect of ABX464 on clinical remission; • Percentage of subjects reaching clinical remission at yearly visits. • To evaluate the long-term effect of ABX464 on endoscopic remission; • Percentage of subjects reaching endoscopic remission at yearly visits. • To evaluate the long-term effect of ABX464 on clinical response; • Percentage of subjects reaching clinical response at yearly visits. • To evaluate the long-term effect of ABX464 on endoscopic improvement; • Percentage of subjects reaching endoscopic improvement at yearly visits. • To evaluate the long-term effect of ABX464 on inflammatory markers (C-reactive protein (CRP), calprotectin); • The change from Baseline in CRP and fecal calprotectin levels. • To evaluate the safety profile of ABX464; • Number and rate of all AEs and causally-related AEs, all Serious Adverse Events (SAEs) and causally-related SAEs, all AEs of Special Interest (AESIs) and causally-related AESIs, classified by severity; • Incidence of AEs leading to investigational medicinal product discontinuation; • The number of clinically-significant laboratory abnormalities. • To evaluate the effect of ABX464 on miR-124 expression in total blood at every timepoint defined in the schedule of assessment. • Change relative to baseline in miRNA-124 expression in total blood at every defined timepoint.
For the purpose of the study, the following definitions will be applied: • Clinical remission based on the Mayo Scoring system, is defined as stool frequency subscore=0 or 1 and rectal bleeding subscore=0 and endoscopy subscore=0 or 1 (modified to exclude friability). • Clinical Response is defined as a reduction from baseline in modified Mayo Score of at least 2 points and greater than or equal to 30 percent from baseline with an accompanying decrease in rectal bleeding sub-score of greater than or equal to 1 point or absolute rectal bleeding sub-score of less than or equal to 1 point. • Endoscopic remission defined as a Mayo endoscopic sub score of 0. • Endoscopic improvement is defined as a Mayo endoscopic sub score of ≤1 (excluding friability).
This study is an open-label study aiming at evaluating the long-term safety and the efficacy profile of ABX464 given once a day (QD) at 25 mg in subjects who have been previously enrolled in the ABX464-102 or ABX464-104 studies (OLE and maintenance studies) and who are willing to continue their treatment.
All subjects will receive ABX464 given at 25 mg QD.
Subjects will be treated with ABX464 for a maximum period of 54 months. Subjects will be followed up quarterly. After the treatment period, subjects will be followed for 4 additional weeks for safety purposes.
A subject will be eligible to participate in this study if ALL the following criteria are met: • 1. Subjects who previously completed the ABX464-102 or ABX464-104 clinical studies; • 2. Subjects should be in endoscopic improvement with a rectal bleeding sub-score=0 point at the end of treatment period in the previous study (ABX464-102 or ABX464-104). Endoscopic improvement is defined as: a Mayo endoscopic sub score of ≤1; • 3. Subjects able and willing to comply with study visits and procedures; • 4. […]

Which results are given for `FC(F)(F)Oc1ccc(Nc2ccc3cccc(Cl)c3n2)cc1` [Obefazimod, 8-chloro-N-[4-(trifluoromethoxy)phenyl]quinolin-2-amine]?
Durability of efficacy (MMS evaluation) (25 mg QD in patients who achieved endoscopic improvement after 2-4 years of exposure to 50 mg): continues to have durable efficacy; Proportion of patients with Fecal Calprotectin <250 microgm/gm (63 patients who completed 48-week treatment with 25 mg QD): 93%; Disease control Rate (Stable+improved MMS) (63 patients who completed 48-week treatment with 25 mg QD, after 2-4 years of 50 mg in ABX464-102/-104): 84.1%; New safety signals (UC patients treated for up to 5 years): no new safety signals; Patients withdrawn due to AE (of 74 patients analyzed, 48-week treatment with 25 mg QD): 2 patients
